Measurements as given in PMC13494812, “Towards the Targeted Protein Degradation of PRMT1” (Chemmedchem, 2024).

Assays:
PRMT1 [1] = biological target: T1, PRMT1 (Homo sapiens, UniProt Q99873); assay: ADMA and MMA levels by Western blot in MCF-7 cells (PRMT1 / Type I PRMT inhibition); format: cell-based; details: 10 μM, 24 h; for change in monomethylation of arginine (MMA): Western blot
T1 construct: endogenous in cells; host or cells: MCF-7
Source text: The cells were allowed to adhere overnight.
manufacturer’s instructions.

KP-3 line = assay: Cytotoxicity seen in the KP-3 degradation experiment; format: cell-based, human; details: KP-3 cells, 10 μM, 24 h
Protocol: Figure S5. VHL-recruiting PROTACs in two PDAC-derived cell lines. Western blot of PROTAC A-F in two PDAC-derived cell lines at 10 µM. HPAF-II and KP-3 cells were treated with the indicated compounds at 10 µM for 24 h and then harvested for analysis by Western blot. PROTAC E and PROTAC F were cytotoxic in the KP-3 line.
(1 picture or pasted object on this page, not shown here)

MCF-7 cell line = assay: Cytotoxicity seen in the MCF-7 degradation experiment; format: cell-based, human; details: MCF-7 cells, 10 μM, 24 h
NLuc-CRBN fusion protein = biological target: T2, NLuc-CRBN fusion protein (Homo sapiens, UniProt Q96SW2); assay: CRBN NanoBRET Target Engagement assay in live MCF-7 cells; format: cell-based; details: 0.5 µM tracer, 2 h, read-out: IC50, half-maximal inhibition of tracer binding to NLuc-CRBN
T2 construct: host or cells: MCF-7

[2] = PROTAC stability in cell culture media; format: in vitro ADME; details: read-out: t1/2 in cell culture media (converted)
Source text: A SEM protecting group was employed on the glutarimide ring of CRBN ligand 6. Three CRBN‐recruiting PROTACs were synthesised by the O‐alkylation of PRMT1 ligand 4 with the corresponding linker 8 j–l to give 9 j–l which underwent a subsequent O‐alkylation with SEM‐protected CRBN ligand 12. The removal of the protecting groups was then attempted using acidic conditions. The N‐Boc and THP protecting groups on the PRMT1 ligand were removed however the SEM group on the CRBN ligand was converted to an N‐hydroxymethyl functional group. This group was removed under basic conditions to afford PROTACs J–L (Scheme 3 A). It is documented that the glutarimide ring and the phthalimide group of the CRBN ligand are susceptible to hydrolysis,[50, 51] and the stability of PROTAC L in cell culture media was investigated and found to be short (t1/2=0.9 h). Changing the functional group between the CRBN ligand and linker can affect the susceptibility of the ligand to hydrolysis.[52] PROTAC M was synthesised, which comprised a similar structure as PROTAC L, but with an amino group between the linker and CRBN ligand (Scheme 3 B).

PRMT1 [3] = biological target: T1, PRMT1; assay: PRMT1 degradation assay by Western blot in MCF-7 cells; format: cell-based; details: 1 and 0.1 μM, 24 h
Source text: A sensitive and selective Western blot protocol was validated to investigate the effect of PROTAC treatment on the cellular levels of PRMT1 in the MCF‐7 cell line (Figure S4, ESI†). Derived from a metastatic breast adenocarcinoma, the MCF‐7 cell line has the hormone receptor status that characterises the most frequently diagnosed subtype of breast cancer: ER‐positive, PR‐positive, HER2‐negative.[43, 44] This breast cancer subtype, and consequently the MCF‐7 cell line, are a suitable model system to predict the clinical efficacy of PRMT1 PROTACs; PRMT1 upregulation correlates with a reduction in relapse‐free survival for patients with this breast cancer subtype[6, 45] and anti‐proliferative effects have been observed in the MCF‐7 cell line following pan‐Type I PRMT inhibition.[17, 20]
Figure 3 PRMT1 and PRMT6 degradation assays with VHL‐recruiting PROTACs. […] PROTACs E–F were cytotoxic and not analysed. […]
(§1) Western Blot Cells were counted using the Vi-CELL XR cell viability analyser, as per manufactures instructions, and the desired number of cells seeded in full media in individual 10 cm plates (Corning, #430167). […]
(§2) The pellet was resuspended in RIPA buffer containing protease and phosphatase inhibitor and incubated at 4 °C for 10 minutes with rotation. […] The supernatant was transferred and the protein concentration quantified by the Direct Detect Spectrometer as per manufacturer’s instructions. […]

PRMT6 = biological target: T3, PRMT6 (Homo sapiens, UniProt Q96LA8); assay: PRMT6 degradation assay by Western blot in MCF-7 cells; format: cell-based; details: 1 and 0.1 μM, 24 h
T3 construct: endogenous in cells; host or cells: MCF-7
Protocol: At 10 μM in the MCF‐7 cell line, PRMT1 degradation was not observed with any of the synthesised PROTACs (Figure 3A). PROTAC E and PROTAC F were cytotoxic and not analysed. […]. PRMT8 is expressed primarily in the brain and thus not investigated.[46]
Figure 3 PRMT1 and PRMT6 degradation assays with VHL‐recruiting PROTACs. A) PROTACs A–I at 10 μM. PROTACs E–F were cytotoxic and not analysed. MCF‐7 cells were treated with the indicated compound for 24 h and then harvested for analysis by Western blot. B) Same as A but PROTACs tested at 1 and 0.1 μM. Image representative of two independent experiments. Uncropped blots are shown in ESI†.
Figure 5 PRMT1 and PRMT6 degradation assays with CRBN‐recruiting PROTACs. A) PROTACs J–O at 10 μM. MCF‐7 cells were treated with the indicated compound for 24 h and then harvested for analysis by Western blot. B) Same as A but PROTAC N tested at 1 and 0.1 μM. […]
as §1, §2

CRBN = biological target: T4, CRBN (Homo sapiens, UniProt Q96SW2); assay: CRBN binding of N-alkylated molecule 7 (Figure S6)
T4 construct: host or cells: MCF-7
Source text: To synthesise PROTACs that recruit the CRBN E3‐ligase, PRMT1 ligand 4 underwent a Mitsunobu reaction to produce 5 which was then used for the alkylation of CRBN ligand 6.

T1 sequence (Q99873 whole entry): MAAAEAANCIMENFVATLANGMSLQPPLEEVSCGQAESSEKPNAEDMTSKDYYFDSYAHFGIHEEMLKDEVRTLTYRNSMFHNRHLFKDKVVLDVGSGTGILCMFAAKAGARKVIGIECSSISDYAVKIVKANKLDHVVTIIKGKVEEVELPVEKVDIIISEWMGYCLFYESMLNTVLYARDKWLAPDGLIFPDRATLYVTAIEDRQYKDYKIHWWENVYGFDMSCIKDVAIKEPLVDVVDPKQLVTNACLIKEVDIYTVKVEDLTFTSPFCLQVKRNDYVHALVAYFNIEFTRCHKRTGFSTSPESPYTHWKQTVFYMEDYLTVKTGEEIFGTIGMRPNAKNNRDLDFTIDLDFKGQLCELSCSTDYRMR
T2 sequence (Q16531 whole entry, the tested form may be a part): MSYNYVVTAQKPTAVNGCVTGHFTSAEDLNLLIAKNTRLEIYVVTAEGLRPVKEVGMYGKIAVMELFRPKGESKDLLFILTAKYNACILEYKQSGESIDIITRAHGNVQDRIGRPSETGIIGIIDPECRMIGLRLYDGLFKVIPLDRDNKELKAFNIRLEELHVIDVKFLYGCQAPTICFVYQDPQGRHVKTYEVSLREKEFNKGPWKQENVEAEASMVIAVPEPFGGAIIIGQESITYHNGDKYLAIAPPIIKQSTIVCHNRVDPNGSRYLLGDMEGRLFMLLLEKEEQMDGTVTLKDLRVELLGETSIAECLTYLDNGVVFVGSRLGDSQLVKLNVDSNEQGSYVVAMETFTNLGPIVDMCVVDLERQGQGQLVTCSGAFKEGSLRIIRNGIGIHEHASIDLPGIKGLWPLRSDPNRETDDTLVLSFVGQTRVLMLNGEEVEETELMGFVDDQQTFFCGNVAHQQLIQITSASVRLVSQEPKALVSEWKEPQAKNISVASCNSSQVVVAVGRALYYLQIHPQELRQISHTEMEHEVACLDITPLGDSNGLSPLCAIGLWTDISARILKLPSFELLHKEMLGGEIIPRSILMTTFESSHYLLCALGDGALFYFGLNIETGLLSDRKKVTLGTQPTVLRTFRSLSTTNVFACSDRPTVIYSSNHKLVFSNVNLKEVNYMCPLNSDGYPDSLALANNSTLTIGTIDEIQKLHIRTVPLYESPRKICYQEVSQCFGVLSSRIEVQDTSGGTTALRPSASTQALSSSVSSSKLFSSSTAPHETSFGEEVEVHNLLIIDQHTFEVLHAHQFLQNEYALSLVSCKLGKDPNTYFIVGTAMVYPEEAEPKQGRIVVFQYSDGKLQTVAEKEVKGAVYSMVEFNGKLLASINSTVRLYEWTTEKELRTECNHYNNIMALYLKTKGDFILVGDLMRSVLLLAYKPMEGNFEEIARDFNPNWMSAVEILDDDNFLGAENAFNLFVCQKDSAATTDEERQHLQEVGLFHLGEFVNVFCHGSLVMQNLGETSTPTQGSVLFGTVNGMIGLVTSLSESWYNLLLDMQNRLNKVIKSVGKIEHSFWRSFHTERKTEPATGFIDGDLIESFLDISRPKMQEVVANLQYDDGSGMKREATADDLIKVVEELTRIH
T2 sequence (Q96SW2 whole entry, the tested form may be a part): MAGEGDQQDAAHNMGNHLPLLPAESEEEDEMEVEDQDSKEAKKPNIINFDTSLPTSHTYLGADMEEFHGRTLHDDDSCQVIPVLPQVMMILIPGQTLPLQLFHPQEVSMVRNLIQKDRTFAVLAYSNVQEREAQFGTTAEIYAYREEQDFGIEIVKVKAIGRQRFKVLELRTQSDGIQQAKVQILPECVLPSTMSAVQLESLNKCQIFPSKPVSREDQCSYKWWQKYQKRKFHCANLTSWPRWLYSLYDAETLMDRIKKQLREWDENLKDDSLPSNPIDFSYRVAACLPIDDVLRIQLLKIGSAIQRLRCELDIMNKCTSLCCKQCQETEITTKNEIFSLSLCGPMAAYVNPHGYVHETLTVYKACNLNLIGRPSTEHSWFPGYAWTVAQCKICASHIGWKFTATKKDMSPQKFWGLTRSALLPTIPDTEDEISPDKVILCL
T4 sequence (Q96SW2 whole entry): as the sequence (Q96SW2 whole entry, the tested form may be a part) above
T4 sequence (Q16531 whole entry, further chain): as the sequence (Q16531 whole entry, the tested form may be a part) above
T3 sequence (Q96LA8 whole entry): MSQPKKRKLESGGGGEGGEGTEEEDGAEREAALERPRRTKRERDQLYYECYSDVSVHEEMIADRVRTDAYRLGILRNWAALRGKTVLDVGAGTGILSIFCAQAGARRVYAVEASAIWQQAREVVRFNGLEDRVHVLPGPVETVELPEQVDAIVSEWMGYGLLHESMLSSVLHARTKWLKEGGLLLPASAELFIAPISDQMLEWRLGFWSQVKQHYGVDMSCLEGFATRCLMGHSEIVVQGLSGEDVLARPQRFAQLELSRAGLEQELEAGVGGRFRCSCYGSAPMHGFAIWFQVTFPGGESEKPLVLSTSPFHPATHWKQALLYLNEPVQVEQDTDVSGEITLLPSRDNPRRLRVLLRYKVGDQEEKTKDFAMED

For `CNCCN(C)Cc1c[nH]nc1-c1ccc(OCCCCCCCC(=O)N[C@H](C(=O)N2C[C@H](O)C[C@H]2C(=O)NCc2ccc(-c3scnc3C)cc2)C(C)(C)C)cc1` [PROTAC C], the “change in monomethylation of arginine (MMA)” value (PRMT1 [1]) was “significant increase”.
With `CNCCN(C)Cc1c[nH]nc1-c1ccc(OCCCCCCCCCC(=O)N[C@H](C(=O)N2C[C@H](O)C[C@H]2C(=O)NCc2ccc(-c3scnc3C)cc2)C(C)(C)C)cc1` [PROTAC D] the “change in monomethylation of arginine (MMA)” value (PRMT1 [1]) was “significant increase”.
For `CNCCN(C)Cc1c[nH]nc1-c1ccc(OCCCCCCCCCCCC(=O)N[C@H](C(=O)N2C[C@H](O)C[C@H]2C(=O)NCc2ccc(-c3scnc3C)cc2)C(C)(C)C)cc1` [PROTAC E], the cytotoxicity (KP-3 line) was “cytotoxic” and the cytotoxicity (MCF-7 cell line) was “cytotoxic”.
With `CNCCN(C)Cc1c[nH]nc1-c1ccc(OCCCCCCCCCCCCCCCC(=O)N[C@H](C(=O)N2C[C@H](O)C[C@H]2C(=O)NCc2ccc(-c3scnc3C)cc2)C(C)(C)C)cc1` [PROTAC F] the cytotoxicity (KP-3 line) was “cytotoxic” and the cytotoxicity (MCF-7 cell line) was “cytotoxic”.
`CNCCN(C)Cc1c[nH]nc1-c1ccc(OCCOCCOCCOCCOCCOCCOc2cccc3c2C(=O)N(C2CCC(=O)NC2=O)C3=O)cc1` (stereo not drawn) [PROTAC L] showed an IC50 (NLuc-CRBN fusion protein) of over 10000 nM and a half-life [2] of 54 min.
With `CNCCN(C)Cc1c[nH]nc1-c1ccc(OCCOCCOCCOCCOCCOCCNc2cccc3c2C(=O)N(C2CCC(=O)NC2=O)C3=O)cc1` (stereo not drawn) [PROTAC M] the IC50 (NLuc-CRBN fusion protein) was 1900 nM and the half-life [2] was 126 min.
In the case of `CNCCN(C)Cc1c[nH]nc1-c1ccc(OCCCCCCNc2cccc3c2C(=O)N(C2CCC(=O)NC2=O)C3=O)cc1` (stereo not drawn) [PROTAC N], the PRMT1 degradation (PRMT1 [3]) is reported as “neither PRMT1 nor PRMT6 degradation was observed”, the PRMT6 degradation (PRMT6) is reported as “neither PRMT1 nor PRMT6 degradation was observed” and the “inhibition of PRMT1 activity” value (PRMT1 [1]; ADMA/MMA Western blot) is reported as “inhibited PRMT1 activity”. For the same compound, the IC50 (NLuc-CRBN fusion protein) was 200 nM.
In the case of `CNCCN(C)Cc1c[nH]nc1-c1ccc(OCCOCCN2C(=O)CCC(N3C(=O)c4cccc(O)c4C3=O)C2=O)cc1` (stereo not drawn) [compound 7], the CRBN binding (CRBN) is reported as “does not bind CRBN”.
